Source: US20240018136A1, “CDK Inhibitors And Their Use As Pharmaceuticals” (Prelude Therapeutics, Incorporated, priority 2022, published 2024)

Key:
CDK2/Cyclin E2 = CDK2/Cyclin E2 (Homo sapiens, UniProt P24941); experiment: CDK2/CyclinE2 enzymatic activity assay (TR-FRET); type: biochemical; details: ATP 1 mM final, read-out: CDK2_E1 IC50
Protocol: CDK2/CyclinE2 Enzymatic Activity Assay
(§1) The inhibitory activity of compounds was evaluated in vitro using TR-FRET assay with white 384-well low volume microplate (Greiner Bio-One). CDK2/Cyclin E2 catalyzed phosphorylation of peptide in the presence and absence of compounds was measured and used in IC50 determination. Recombinant protein complex CDK2/Cyclin E2, expressed from insect cell, was purchased from ProQinase. Testing compounds were dissolved in DMSO at 1 mM and tested in 9-dose IC50 mode. The reaction mixture was prepared by mixing CDK2/CyclinE2 (1 nM final), ULight-4E-BP1 (50 nM final, Perkinelmer, TRF0128-D), and ATP (1 mM final) in assay buffer (20 mM of HEPES pH 7.4, 1 mM of EGTA, 0.05% BSA, 0.005% Tween 20, and 1 mM TCEP). The compound of interest in DMSO was added to each well in 3-fold serial dilution by dispenser (TECAN D300E) to make a 9.9 μL of reaction mixture. After 20 minutes preincubation at room temperature, 0.1 μL MgCl2 (10 mM final) was added to initiate the reaction. Following a 45 minute incubation at 37° C., the reaction was stopped by addition of 2 μL of quenching buffer consisting of Lance detection buffer (Perkinelmer CR97-100C), LANCE Ultra Europium-anti-P-4E-BP1 (Perkinelmer, TRF0216-D), EDTA, and incubate at room temperature for an additional 60 minutes in the dark. The reaction signal was measured by Envision multimode plate reader (PerkinElmer, 2102-0010). IC50 values were determined by fitting the data to the standard 4 parameters with Hill Slope using GraphPad Prism software.

CDK4/Cyclin D1 = biological target: T1, CDK4/Cyclin D1 (Homo sapiens, UniProt P11802); experiment: CDK4/CyclinD1 enzymatic activity assay (TR-FRET); type: biochemical; details: ATP 2 mM final, read-out: CDK4_D1 IC50
T1 construct: purchased ProQinase; host or cells: insect cell
T1 sequence (P11802 whole entry): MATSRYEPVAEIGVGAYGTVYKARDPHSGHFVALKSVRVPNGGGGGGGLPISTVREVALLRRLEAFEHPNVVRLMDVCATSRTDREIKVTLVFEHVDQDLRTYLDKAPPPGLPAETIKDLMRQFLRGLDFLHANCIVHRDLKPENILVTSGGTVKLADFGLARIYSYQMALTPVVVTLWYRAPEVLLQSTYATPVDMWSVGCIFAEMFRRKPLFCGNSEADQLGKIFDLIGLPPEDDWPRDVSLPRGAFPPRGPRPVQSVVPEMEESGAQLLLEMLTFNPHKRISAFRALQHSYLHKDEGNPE
T1 sequence (P24385 whole entry partner): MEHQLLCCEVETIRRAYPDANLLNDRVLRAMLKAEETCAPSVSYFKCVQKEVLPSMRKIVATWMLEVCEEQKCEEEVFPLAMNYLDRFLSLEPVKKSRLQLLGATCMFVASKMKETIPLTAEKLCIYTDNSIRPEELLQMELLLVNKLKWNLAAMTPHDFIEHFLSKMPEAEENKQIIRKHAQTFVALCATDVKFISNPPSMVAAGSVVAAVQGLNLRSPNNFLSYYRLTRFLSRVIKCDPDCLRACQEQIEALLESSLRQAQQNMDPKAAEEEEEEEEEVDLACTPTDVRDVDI
Protocol: CDK4/CyclinD1 Enzymatic Activity Assay
as §1, with “Bio-One). CDK4/Cyclin D1” for “Bio-One). CDK2/Cyclin E2”, “in IC5” for “in IC50”, “complex CDK4/Cyclin D1,” for “complex CDK2/Cyclin E2,”, “mixing CDK4/CyclinD1” for “mixing CDK2/CyclinE2”, “ULight-4E-BP1 (100” for “ULight-4E-BP1 (50”, “ATP (2” for “ATP (1”

OVCAR3 p-RB = experiment: pRB ICW assay in OVCAR3 cells; type: cell-based; details: Homo sapiens, OVCAR-3, incubated with compound for 2 hours
Protocol: pRB ICW Assay in OVCAR3 Cells
OVCAR3 cells were maintained in RPMI (Corning, Catalog #: 10-040-CV) supplemented with 10% v/v FBS (Gibco, Catalog #: 26140-079), 1% v/v Penicillin Streptomycin (Gibco, Catalog #15140-122.) OVCAR3 cells grown at log phase were trypsinized, counted, and resuspended in fresh medium to reach a final density of 6.7e4 cells/mL and 75 μL of culture were dispensed into a 384-well plate (Falcon, cat #353962) using Multidrop Combi dispenser (Thermo Scientific). The next day, compounds were dispensed as a 9-point, ½ log serial dilution using a Tecan digital dispenser (D300e), and cells were incubated with compound for 2 hours in a humidified incubator at 37° C. A reference compound at a final concentration of 10 μM was used as a control for maximum inhibition. Each compound was tested in duplicates in each experiment. At the end of the incubation, 25 μL of 16% paraformaldehyde (Electron Microscopy, cat #15710) was slowly added to each well and the plate was incubated at room temperature (RT) for 30 minutes to fix cells. Cells were then permeabilized by incubating with 50 μL/well of wash buffer (lx PBS with 0.1% Triton X-100) 5×5 minutes, followed by 1 hour blocking with 30 μL/well of Odyssey blocking buffer (Li-COR, cat #927-40000), all at RT. Anti-phosphor RB antibody (Cell signaling 8516S) was diluted 1:1000 in Odyssey blocking buffer and 20 μL was added to all wells and incubated overnight in 4° C. with gently rocking. The next day, cells were washed 5×5 min with 50 μL/well of wash buffer, followed with 1 hour incubation with secondary antibody and DRAQ5 diluted in Odyssey blocking buffer (1:500 dilution for secondary antibody and 1:2000 dilution for DRAQ5), 5×5 min washes, and one last wash with water. Plates were dried in 37° C. oven for 5 min and scanned using Li-COR Odyssey CLx imaging system to acquire intensities at 700 and 800 nm channels.

In the case of `C[C@@]1(O)CCC[C@H]1Nc1ncc(-c2nc(NC3CCN(S(C)(=O)=O)CC3)ncc2C(F)(F)F)s1` [Example 37, (1R,2R)-1-Methyl-2-[[5-[2-[(1-methylsulfonylpiperidin-4-yl)amino]-5-(trifluoromethyl)pyrimidin-4-yl]-1,3-thiazol-2-yl]amino]cyclopentan-1-ol], the IC50 (CDK2/Cyclin E2) is reported as no more than 100 nM, the IC50 (CDK4/Cyclin D1) is reported as no more than 100 nM and the IC50 (OVCAR3 p-RB) is reported as 100 to 1000 nM.
`Cc1ncc(-c2nc(NC3CCN(S(C)(=O)=O)CC3)ncc2C(F)(F)F)s1` [Example 19, N-(1-methylsulfonylpiperidin-4-yl)-4-(2-methyl-1,3-thiazol-5-yl)-5-(trifluoromethyl)pyrimidin-2-amine] was tested, and the IC50 (CDK2/Cyclin E2) was no more than 100 nM, the IC50 (CDK4/Cyclin D1) was no more than 100 nM and the IC50 (OVCAR3 p-RB) was 100 to 1000 nM.
With `COCc1nn(C)cc1S(=O)(=O)N1CCC(Nc2ncc(C(F)(F)F)c(-c3cnc(C(C)O)s3)n2)CC1` (stereo not drawn) [Example 86, 1-(5-(2-((1-((3-(methoxymethyl)-1-methyl-1H-pyrazol-4-yl)sulfonyl)piperidin-4-yl)amino)-5-(trifluoromethyl)pyrimidin-4-yl)thiazol-2-yl)ethan-1-ol] the IC50 (CDK2/Cyclin E2) was no more than 100 nM, the IC50 (CDK4/Cyclin D1) was no more than 100 nM and the IC50 (OVCAR3 p-RB) was no more than 100 nM.
With `Cn1cc(S(=O)(=O)N2CC[C@H](Nc3ncc(C(F)(F)F)c(-c4cnc(CC(C)(C)O)s4)n3)[C@H](F)C2)cn1` [Example 73, 1-(5-(2-(((3R,4S)-3-fluoro-1-((1-methyl-1H-pyrazol-4-yl)sulfonyl)piperidin-4-yl)amino)-5-(trifluoromethyl)pyrimidin-4-yl)thiazol-2-yl)-2-methylpropan-2-ol] the IC50 (CDK2/Cyclin E2) was no more than 100 nM, the IC50 (CDK4/Cyclin D1) was no more than 100 nM and the IC50 (OVCAR3 p-RB) was no more than 100 nM.
For `Cc1ncc(-c2nc(N[C@H]3CCN(S(=O)(=O)c4cnn(C)c4)C[C@H]3F)ncc2C(F)(F)F)s1` [Example 94, N-((3R,4S)-3-fluoro-1-((1-methyl-1H-pyrazol-4-yl)sulfonyl)piperidin-4-yl)-4-(2-methylthiazol-5-yl)-5-(trifluoromethyl)pyrimidin-2-amine], the IC50 (CDK2/Cyclin E2) was no more than 100 nM, the IC50 (CDK4/Cyclin D1) was no more than 100 nM and the IC50 (OVCAR3 p-RB) was no more than 100 nM.
Molecule `CS(=O)(=O)N1CCC(Nc2ncc(C(F)(F)F)c(-c3cnc(C4CCOCC4)s3)n2)CC1` [Example 3, N-(1-methylsulfonylpiperidin-4-yl)-4-[2-(oxan-4-yl)-1,3-thiazol-5-yl]-5-(trifluoromethyl)pyrimidin-2-amine] has an IC50 (CDK2/Cyclin E2) of no more than 100 nM, an IC50 (CDK4/Cyclin D1) of no more than 100 nM and an IC50 (OVCAR3 p-RB) of 100 to 1000 nM.
`C[C@@H]1CN(S(=O)(=O)c2cn(C)cn2)CC[C@@H]1Nc1ncc(C(F)(F)F)c(-c2cnc(C(C)(C)O)s2)n1` [Example 96, 2-(5-(2-(((3R,4S)-3-methyl-1-((1-methyl-1H-imidazol-4-yl)sulfonyl)piperidin-4-yl)amino)-5-(trifluoromethyl)pyrimidin-4-yl)thiazol-2-yl)propan-2-ol] showed an IC50 (CDK2/Cyclin E2) of no more than 100 nM, an IC50 (CDK4/Cyclin D1) of 100 to 1000 nM and an IC50 (OVCAR3 p-RB) of no more than 100 nM.
`[2H]C([2H])([2H])Nc1ncc(-c2nc(NC3CCN(S(C)(=O)=O)CC3)ncc2C(F)(F)F)s1` [Example 39, 5-[2-[(1-Methylsulfonylpiperidin-4-yl)amino]-5-(trifluoromethyl)pyrimidin-4-yl]-N-(trideuteriomethyl)-1,3-thiazol-2-amine] gave an IC50 (CDK2/Cyclin E2) of no more than 100 nM, an IC50 (CDK4/Cyclin D1) of no more than 100 nM and an IC50 (OVCAR3 p-RB) of 100 to 1000 nM.
For `CC(O)c1ncc(-c2nc(N[C@H]3CCN(S(=O)(=O)c4cnn(C)c4)C[C@H]3F)ncc2C(F)(F)F)s1` (stereo partly drawn) [Example 98, 1-(5-(2-(((3R,4S)-3-fluoro-1-((1-methyl-1H-pyrazol-4-yl)sulfonyl)piperidin-4-yl)amino)-5-(trifluoromethyl)pyrimidin-4-yl)thiazol-2-yl)ethan-1-ol], the IC50 (CDK2/Cyclin E2) was no more than 100 nM, the IC50 (CDK4/Cyclin D1) was no more than 100 nM and the IC50 (OVCAR3 p-RB) was no more than 100 nM.
`Cn1cnc(S(=O)(=O)N2CCC(Nc3ncc(C(F)(F)F)c(-c4cnc(C(O)C(F)F)s4)n3)CC2)c1` (stereo not drawn) [Example 91, 2,2-difluoro-1-(5-(2-((1-((1-methyl-1H-imidazol-4-yl)sulfonyl)piperidin-4-yl)amino)-5-(trifluoromethyl)pyrimidin-4-yl)thiazol-2-yl)ethan-1-ol] was tested, and the IC50 (CDK2/Cyclin E2) was no more than 100 nM, the IC50 (CDK4/Cyclin D1) was no more than 100 nM and the IC50 (OVCAR3 p-RB) was no more than 100 nM.
`CC(C)N(C)c1ncc(-c2nc(NC3CCN(S(C)(=O)=O)CC3)ncc2C(F)(F)F)s1` [Example 22, N-isopropyl-N-methyl-5-(2-((1-(methylsulfonyl)piperidin-4-yl)amino)-5-(trifluoromethyl)pyrimidin-4-yl)thiazol-2-amine] showed an IC50 (CDK2/Cyclin E2) of no more than 100 nM, an IC50 (CDK4/Cyclin D1) of no more than 100 nM and an IC50 (OVCAR3 p-RB) of 100 to 1000 nM.
`CC(O)c1ncc(-c2nc(N[C@H]3CCN(S(=O)(=O)c4cnn(C)c4)C[C@@H]3F)ncc2C(F)(F)F)s1` (stereo partly drawn) [Example 100, 1-(5-(2-(((3S,4S)-3-fluoro-1-((1-methyl-1H-pyrazol-4-yl)sulfonyl)piperidin-4-yl)amino)-5-(trifluoromethyl)pyrimidin-4-yl)thiazol-2-yl)ethan-1-ol] gave an IC50 (CDK2/Cyclin E2) of no more than 100 nM, an IC50 (CDK4/Cyclin D1) of 100 to 1000 nM and an IC50 (OVCAR3 p-RB) greater than 1000 nM.
`CS(=O)(=O)N1CCC(Nc2ncc(C(F)(F)F)c(-c3cnc(NCCO)s3)n2)CC1` [Example 31, 2-[[5-[2-[(1-methylsulfonylpiperidin-4-yl)amino]-5-(trifluoromethyl)pyrimidin-4-yl]-1,3-thiazol-2-yl]amino]ethanol] showed an IC50 (CDK2/Cyclin E2) of no more than 100 nM, an IC50 (CDK4/Cyclin D1) of no more than 100 nM and an IC50 (OVCAR3 p-RB) of 100 to 1000 nM.
`CC(=O)N1CCC(S(=O)(=O)N2CCC(Nc3ncc(C(F)(F)F)c(-c4cnc(C(C)O)s4)n3)CC2)CC1` (stereo not drawn) [Example 88, 1-(4-((4-((4-(2-(1-hydroxyethyl)thiazol-5-yl)-5-(trifluoromethyl)pyrimidin-2-yl)amino)piperidin-1-yl)sulfonyl)piperidin-1-yl)ethan-1-one] was tested, and the IC50 (CDK2/Cyclin E2) was no more than 100 nM, the IC50 (CDK4/Cyclin D1) was no more than 100 nM and the IC50 (OVCAR3 p-RB) was 100 to 1000 nM.
`CS(=O)(=O)N1CCC(Nc2ncc(C(F)(F)F)c(-c3cnc(N4CCCC4)s3)n2)CC1` [Example 1, N-(1-Methylsulfonylpiperidin-4-yl)-4-(2-pyrrolidin-1-yl-1,3-thiazol-5-yl)-5-(trifluoromethyl)pyrimidin-2-amine] was tested, and the IC50 (CDK2/Cyclin E2) was no more than 100 nM, the IC50 (CDK4/Cyclin D1) was no more than 100 nM and the IC50 (OVCAR3 p-RB) was 100 to 1000 nM.
Work on `CN(c1ncc(-c2nc(NC3CCN(S(C)(=O)=O)CC3)ncc2C(F)(F)F)s1)[C@@H]1CCC[C@H]1O` [Example 34, (1R,2R)-2-(methyl(5-(2-((1-(methylsulfonyl)piperidin-4-yl)amino)-5-(trifluoromethyl)pyrimidin-4-yl)thiazol-2-yl)amino)cyclopentan-1-ol] yielded an IC50 (CDK2/Cyclin E2) of no more than 100 nM, an IC50 (CDK4/Cyclin D1) of no more than 100 nM and an IC50 (OVCAR3 p-RB) of 100 to 1000 nM.
